From patent publication US6395906B1, “Intermediates to pesticidal 1-arylpyrazoles” (Rhone-Poulenc Inc., priority 1995, dated 2002)

Legend:
Assay type in all cases: in vivo
[1] = tested on: black cutworm (Agrotis ipsilon); assay: Black cutworm (BCW) soil test; details: soil concentration 2.5, 5, 6.75 or 10 ppm; mortality eight days after infestation
Protocol: (§1) For the tick, aphids, souther armyworm, tobacco budworm, house fly, Mexican bean beetle, American cockroach, cat flea, souther corn rootworm, western corn rootworm, black cutworm, and southern root-knot nematode, a solution or suspension was prepared by adding the test compound to a solution of dimethylformamide, acetone, emulsifiers which are alkylaryl polyether alcohols organic sulfonates, and water. The result was a 100 or 500 ppm concentration of the test compound.
(§2) For southern corn rootworm and black cutworm tests, the water-acetone-DMF-emulsifier solution was adjusted for a treatment rate of 2.5, 5, 6.75 or 10 ppm.
(§3) Southern corn rootworm (SCRW), Black cutworm (BCW): Corn seeds were placed in a glass jar and covered with dry sandy loam soil. The 500 ppm test formulation was applied for a soil concentration of 2.5, 5, 6.75 or 10 ppm. As an untreated control, an aliquot of a water-acetone-DMF-emulsifier solution containing no test compound was applied in a similar manner. After incubating covered for 24 hours, the soil was mixed and inoculated with approximately 25 southern corn rootworm eggs. Following an additional 48 hours, two late second to early third instar black cutworms were placed in the jar with a portion of insect diet. Eight days after infestation, mortality was assessed visually for cutworm and by Berlese funnel extraction for rootworm.

[2] = tested on: southern corn rootworm (Diabrotica undecimpunctata howardi); assay: Southern corn rootworm (SCRW) soil test; details: soil concentration 2.5, 5, 6.75 or 10 ppm; mortality eight days after infestation
Protocol: as §1, §2, §3

[3] = tested on: house fly (Musca domestica); assay: House fly (HF) bait test; details: sucrose bait, 100 or 250 ppm; adult flies, mortality after 24 hours
Protocol: as §1
For house fly tests, the water-acetone-DMF-emulsifier solution was adjusted with a 20% by weight aqueous solution of sucrose to provide a final 100 or 250 ppm concentration of the test compound.
House fly (HF): Four to six day old adult house flies were used. The files were immobilized by anesthetizing with carbon dioxide. A bait cup was prepared which contained the 100 or 250 ppm test compound formulation/sucrose solution and one or two absorbent cotton pad(s). As an untreated control, a water-acetone-DMF-emulsifier-sucrose solution containing no test compound was applied in a similar manner. The bait cup was introduced inside the cage prior to admitting 12-25 anesthetized flies. Mortality was assessed after 24 hours.

[4] = tested on: tobacco budworm (Heliothis virescens); assay: Tobacco budworm (TBW) treated cotton leaf test; details: cotton leaves, 100 ppm; second instar larvae, five days
Protocol: as §1
Tobacco budworm (TBW): Cotton leaves were wet to runoff with the 100 ppm test compound formulation. As an untreated control, a water-acetone-DMF-emulsifier solution containing no test compound was also applied wet to runoff to cotton leaves. Ten randomly selected second instar tobacco budworm larvae were introduced into plastic containers in which moist dental wicks and the dry treated leaves had been placed. The cups were closed and held for five days. Larvae which were unable to move the length of the body, even upon stimulation by prodding, were considered dead.

[5] = tested on: cotton aphid (Aphis gossypii); assay: Cotton aphid systemic test (CA-Sys); details: soil drench 10.0 ppm, aphid control rated three and six days after infestation
Description: (§4) For cotton aphid systemic tests and black cutwork—systemic tests, the water-acetone-DMF-emulsifier solution was adjusted for a treatment rate of 10.0 ppm soil concentration.
Cotton aphid—systemic test (CA-Sys): Cotton seeds were placed on top of the soil surface in pots containing moist soil. The test compound solution was applied as a drench to the top of the soil and seeds for a treatment rate equivalent to 10.0 ppm soil concentration. As an untreated control, an aliquot of a water-acetone-DMF-emulsifier solution containing no test compound was applied in a similar manner. The soil surface and seeds were covered with moist soil. The pots were held in the greenhouse for the duration of the bioassay. When the cotyledons of the cotton were expanded (approximately 7 days after planting), the cotton was infested with approximately 25 cotton aphids (mixed population). The plant were rated for aphid control three and six days after infestation.

[6] = tested on: cotton aphid (Aphis gossypii); assay: Cotton aphid (CA) foliar spray test; details: cotton plants wet to runoff, 100 or 500 ppm; dead aphids counted after three days
Protocol: as §1
Buckthorn aphid (BA) or cotton aphid (CA): Adult and nymphal stages of buckthorn or cotton aphid were reared on potted dwarf nasturtium or cotton plants, respectively. Plants infested with 100-150 aphids were wet to runoff with the 100 or 500 ppm test compound formulation. As an untreated control, a water-acetone-DMF-emulsifier solution containing no test compound was also applied to runoff to infested plants. The treated plants were stored for one day for buckthorn aphid and three days for cotton aphid, after which the dead aphids were counted.

[7] = tested on: western corn rootworm (Diabrotica virgifera virgifera); assay: Western corn rootworm (WCRW) soil test; details: soil concentration 0.15 or 0.5 ppm; neonate larvae, mortality six days after infestation
Protocol: as §1
For the western corn rootworm test, the water-acetone-DMF-emulsifier solution was adjusted for a treatment rate of 0.15 or 0.5 ppm.
Western corn rootworm (WCRW): The 500 ppm test formulation was applied to dry sandy loam soil contained in a glass jar for a soil concentration of 0.15 or 0.5 ppm. As an untreated control, an aliquot of a water-acetone-DMF-emulsifier solution containing no test compound was applied in a similar manner. After incubating covered for 24 hours, the soil was mixed and four germinated corn seedlings were added to the jar. Ten neonate western corn rootworm larvae were placed in the jar. Six days after infestation, mortality was assessed by Berlese funnel extraction.

[8] = tested on: black cutworm (Agrotis ipsilon); assay: Black cutworm systemic test (BCW-Sys); details: soil drench 10.0 ppm, corn seedling clipped ten days after treatment; mortality 4 days after infestation
Description: as §4
Black cutworm—systemic test (BCW-Sys): Corn seeds were placed on top of the soil surface in pots containing moist soil. The test compound solution was applied as a drench to the top of the soil and seeds for a treatment rate equivalent to 10.0 ppm soil concentration. As an untreated control, an aliquot of water-acetone-DMF-emulsifier solution containing no test compound was applied in a similar manner. The soil surface and seeds were covered with moist soil. The pots were held in the greenhouse for the duration of the bioassay. Ten days after treatment, the corn seedling was clipped and placed in a plastic cup with 2 late second to early third instar black cutworm larvae. Mortality was assessed visually 4 days after infestation.

[9] = tested on: greenbug aphid (Schizaphis graminum); assay: Greenbug aphid systemic test (GA-Sys); details: soil drench 10 or 25 ppm, sorghum; aphid control rated one and three days after infestation
Description: For the greenbug aphid systemic test, the water-acetone-DMF-emulsifier solution was adjusted for a treatment rate of 10 or 25 ppm soil concentration.
Greenburg aphid—systemic test (GA-Sys): Sorghum seeds were placed on top of the soil surface in pots containing moist soil. The test compound solution was applied as a drench to the top of the soil and seeds for a treatment rate equivalent to 10 or 25 ppm soil concentration. As an untreated control, an aliquot of a water-acetone-DMF-emulsifier solution containing no test compound was applied in a similar manner. The soil surface and seeds were covered with moist soil. The pots were held in the greenhouse for the duration of the bioassay. When the sorghum seeds germinated, greenbug aphids were sprinkled evenly over the sorghum pots to about 50 aphids per pot. The plants were rated for aphid control one and three days after infestation.

[10] = tested on: Mexican bean beetle (Epilachna varivestis); assay: Mexican bean beetle (MBB) treated bean leaf test; details: bean leaves, 100 or 500 ppm; second instar larvae, five days
Protocol: as §1
Southern armyworm (SAW), Mexican bean beetle (MBB): Bean leaves were wet to runoff with the 100 or 500 ppm test compound formulation. As an untreated control, a water-acetone-DMF-emulsifier solution containing no test compound was also applied wet to runoff to bean leaves. Five or six randomly selected second instar southern armyworn larvae or Mexican bean bettle larvae were introduced into each plastic container with the dry treated leaves. The container was closed and held for five days. Larvae which were unable to move the length of the body, even upon stimulation by prodding, were considered dead.

[11] = tested on: cat flea (Ctenocephalides felis); assay: Cat flea (CF) treated filter paper contact test; details: 500 ppm, adult fleas, contact mortality 1 day after infestation
Protocol: as §1
Cat flea (CF), dog tick (DT): Filter papers were treated with an aliquot of the 500 ppm test formulation. As an untreated control, an aliquot of a water-acetone-DMF-emulsifier solution containing no test compound was applied in a similar manner. When dry, 2 treated filters were placed in a vial for the flea and another 2 filters in a vial for the tick. Five adult fleas were added to one vial and 5 adult ticks to the second vial. Contact mortality was assessed 1 day after infestation for the flea and 14 days after infestation for the tick.

[12] = tested on: American cockroach (Periplaneta americana); assay: American cockroach (ACR) treated food pellet test; details: food pellets with 500 ppm formulation; nymphs, contact and feeding mortality 1 and 5 days after infestation
Protocol: as §1
American cockroach (ACR): Cat food or dog food pellets were added to jars containing 1-2 mls of the 500 ppm test formulation. As an untreated control, an aliquot of a water-acetone-DMF-emulsifier solution containing no test compound was applied in a similar manner. After 48 hours, roach nymphs were added to the jar. Contact and feeding mortally was assessed 1 and 5 days after infestation.

Row | SMILES | BCW [1] | SCRW [2] | HF [3] | TBW [4] | CA-Sys [5] | CA [6] | WCRW [7] | BCW-Sys [8] | GA-Sys [9] | MBB [10] | CF [11] | ACR [12]
1 | N#Cc1nn(-c2c(Cl)cc(C(F)(F)F)cc2Cl)c(C=NN)c1SC(F)(F)F [Compound 3, 5-{(N-amino)iminomethylidenyl}-3-cyano-1-(2,6-dichloro-4-trifluoromethylphenyl)-4-trifluoromethylthiopyrazole] | + (active against 1 or more insects described above up to 100% mortality. This activity is indicated by a “+”) | + (active against 1 or more insects described above up to 100% mortality. This activity is indicated by a “+”) | + (active against 1 or more insects described above up to 100% mortality. This activity is indicated by a “+”) | + (active against 1 or more insects described above up to 100% mortality. This activity is indicated by a “+”) |  |  |  |  |  |  |  | 
2 | CON=Cc1c(SC(F)(F)F)c(C#N)nn1-c1c(Cl)cc(C(F)(F)F)cc1Cl [Compound 5, 3-Cyano-1-(2,6-dichloro-4-trifluoromethylphenyl)-5-{(N-methoxy)iminomethylidenyl}-4-trifluoromethylthiopyrazole] |  | + (active against 1 or more insects described above up to 100% mortality. This activity is indicated by a “+”) | + (active against 1 or more insects described above up to 100% mortality. This activity is indicated by a “+”) |  | + (active against 1 or more insects described above up to 100% mortality. This activity is indicated by a “+”) | + (active against 1 or more insects described above up to 100% mortality. This activity is indicated by a “+”) | + (active against 1 or more insects described above up to 100% mortality. This activity is indicated by a “+”) |  |  |  |  | 
3 | CC(=O)c1c([S+]([O-])C(F)(F)F)c(C#N)nn1-c1c(Cl)cc(C(F)(F)F)cc1Cl (stereo not shown) [Compound 10, 5-Acetyl-3-cyano-1-(2,6-dichloro-4-trifluoromethylphenyl)-4-trifluoromethylsulfinylpyrazole] | + (active against 1 or more insects described above up to 100% mortality. This activity is indicated by a “+”) |  |  | + (active against 1 or more insects described above up to 100% mortality. This activity is indicated by a “+”) |  |  | + (active against 1 or more insects described above up to 100% mortality. This activity is indicated by a “+”) | + (active against 1 or more insects described above up to 100% mortality. This activity is indicated by a “+”) | + (active against 1 or more insects described above up to 100% mortality. This activity is indicated by a “+”) | + (active against 1 or more insects described above up to 100% mortality. This activity is indicated by a “+”) |  | 
4 | CCOC(OCC)c1c(S(=O)(=O)C(F)(F)F)c(C#N)nn1-c1c(Cl)cc(C(F)(F)F)cc1Cl [Compound 19, 3-Cyano-1-(2,6-dichloro-4-trifluoromethylphenyl)-5-diethoxymethyl-4-trifluoromethylsulfonylpyrazole] |  |  |  | + (active against 1 or more insects described above up to 100% mortality. This activity is indicated by a “+”) |  |  |  |  |  |  | + (active against 1 or more insects described above up to 100% mortality. This activity is indicated by a “+”) | + (active against 1 or more insects described above up to 100% mortality. This activity is indicated by a “+”)
5 | CCOC(OCC)c1c([S+]([O-])C(F)(F)F)c(C#N)nn1-c1c(Cl)cc(C(F)(F)F)cc1Cl (stereo not shown) [Compound 20, 3-Cyano-1-(2,6-dichloro-4-trifluoromethylphenyl)-5-diethoxymethyl-4-trifluoromethylsulfinylpyrazole] |  |  |  |  | + (active against 1 or more insects described above up to 100% mortality. This activity is indicated by a “+”) | + (active against 1 or more insects described above up to 100% mortality. This activity is indicated by a “+”) |  |  |  |  | + (active against 1 or more insects described above up to 100% mortality. This activity is indicated by a “+”) | + (active against 1 or more insects described above up to 100% mortality. This activity is indicated by a “+”)
